# Values quoted from earlier work, collected in patent publication US5041577A, “Organogermanium compounds, processes for producing the same, and agent for inhibiting the activity of opioid peptide-degrading enzyme” (Asai Germanium Research Institute Co., Ltd., priority 1989, dated 1991).
# Legend:
# [1] = tested on: spontaneous hypertensive rats
compound,measurement,setting,value
O=C(O)C[CH2][Ge](=[O])[O][Ge](=[O])[CH2]CC(=O)O [carboxyethylgermanium sesquioxide],amyloidosis-alleviating action,amyloidosis,amyloidosis-alleviating action
same,hypotensive action,[1],shows a hypotensive action
same,antitumor action,tumor,antitumor action
same,interferon-inducing action,interferon,interferon-inducing action
same,macrophage-augmenting action,macrophage,macrophage-augmenting action
